In the test the target is T1, FLT3 (Homo sapiens, UniProt P36888).
T1 sequence (P36888 27-993): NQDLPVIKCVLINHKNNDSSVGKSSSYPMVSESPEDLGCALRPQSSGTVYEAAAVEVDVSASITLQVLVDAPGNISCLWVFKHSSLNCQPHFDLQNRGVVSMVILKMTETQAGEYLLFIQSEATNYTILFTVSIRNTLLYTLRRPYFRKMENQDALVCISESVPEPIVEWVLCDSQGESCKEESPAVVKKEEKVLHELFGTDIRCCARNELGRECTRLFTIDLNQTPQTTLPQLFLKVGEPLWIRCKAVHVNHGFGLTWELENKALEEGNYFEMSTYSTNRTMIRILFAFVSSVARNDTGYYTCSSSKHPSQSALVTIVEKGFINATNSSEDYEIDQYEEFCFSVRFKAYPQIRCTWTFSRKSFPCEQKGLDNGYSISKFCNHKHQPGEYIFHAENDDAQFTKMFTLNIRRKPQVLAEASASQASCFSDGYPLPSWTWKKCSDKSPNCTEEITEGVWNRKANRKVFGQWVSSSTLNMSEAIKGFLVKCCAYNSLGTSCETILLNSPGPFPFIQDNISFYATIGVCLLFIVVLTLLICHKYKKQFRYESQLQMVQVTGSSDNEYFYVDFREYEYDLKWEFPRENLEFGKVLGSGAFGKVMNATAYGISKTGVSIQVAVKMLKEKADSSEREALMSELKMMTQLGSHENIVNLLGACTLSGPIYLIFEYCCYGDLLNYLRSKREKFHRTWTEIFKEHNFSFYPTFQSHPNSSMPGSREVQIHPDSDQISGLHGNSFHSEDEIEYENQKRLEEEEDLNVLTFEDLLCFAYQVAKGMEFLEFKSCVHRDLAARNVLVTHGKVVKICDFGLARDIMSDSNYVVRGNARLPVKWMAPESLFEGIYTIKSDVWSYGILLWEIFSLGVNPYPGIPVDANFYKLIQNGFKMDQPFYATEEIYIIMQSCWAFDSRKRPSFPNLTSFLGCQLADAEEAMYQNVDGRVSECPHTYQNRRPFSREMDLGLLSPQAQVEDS
Description: Reaction Biology NanoBRET target engagement assay, FLT3. Format: cell-based. The conditions noted are these: HEK-293 cells transfected with Kinase-NanoLuc fusion vector, live cells. From the text: The NanoBRET assay measures kinase engagement in real time in the context of the intact cell. Unlike the previously described biochemical kinase assay methodologies in Examples 47 and 48, the NanoBRET assay measures the binding and activity characteristics under equilibrium conditions using full-length kinases in the presence of cellular concentrations of ATP in live, uncompromised cells. […] The assay uses a Kinase-NanoLuc® fusion vector expressing a kinase protein to which a luciferase tag has been added, a cell-permeant fluorescent NanoBRET™ tracer, a NanoLuc® substrate, and an extracellular NanoLuc® inhibitor. Upon expression of the luciferase-tagged kinase, cells will produce a strong BRET signal only in the presence of the NanoBRET™ tracer. The extracellular NanoLuc® inhibitor ensures that the BRET signal observed emanates only from live cells. Because the BRET signal has tight distance constraints, addition of the test compound will decrease the BRET signal if the compound competes with the NanoBRET™ tracer for binding to the kinase domain. Under the appropriate tracer conditions established by the manufacturer, quantitative intracellular affinity and relative potency can then be determined using Mass Action model equations.
HEK-293 cells were purchased from ATCC. FuGENEHD Transfection Reagent, Kinase-NanoLucfusion plasmids, Transfection Carrier DNA, NanoBRETTracers and dilution buffer, NanoBRETNano-Glo Substrate, Extracellular NanoLucInhibitor were obtained from Promega.
Assays were conducted following Promega assay protocol with some modifications. HEK-293 Cells were transiently transfected with Kinase-NanoLucFusion Vector DNA by FuGENEHD Transfection Reagent. Testing compounds were delivered into 384 well assay plate by Echo 550 (LabcyteInc, Sunnyvale, CA). Transfected cells were harvested and mixed with NanoBRETTracer Reagent and dispensed into 384 well plates and incubated at 37° C. in 5% CO2 cell culture incubator for 1 hour. The NanoBRETNano-Glo Substrate plus Extracellular NanoLucInhibitor Solution were added into the wells of the assay plate and incubated for 2-3 minutes at room temperature. The donor emission wavelength (460 nm) and acceptor emission wavelength (600 nm) were measured in the EnVisionplate reader. The BRET Ratios were calculated. BRET Ratio=[(Acceptor sample÷Donor sample)−(Acceptor no-tracer control÷Donor no-tracer control)]. The IC50 values of compounds were calculated with Prism GraphPad program.
• 1). Cultivate HEK-293 cells (70-80% confluence) appropriately prior to assay. Trypsinize and collect HEK-293 cells. • 2). Prepare lipid: DNA complexes as follows: • a. Prepare a 10 μg/ml solution of DNA in Opti-MEM without serum that consists of the following ratios of carrier DNA and DNA encoding NanoLuc® fusion. […] of Transfection Carrier DNA, […] of NanoLuc fusion vector DNA and 1 mL of Opti-MEM without phenol red. Mix thoroughly. • b. Add 30 μl of FuGENE HD Transfection Reagent into each milliliter of DNA mixture to form lipid: DNA complex. • c. Mix by inversion 10 times. • d. Incubate at ambient temperature for 20 minutes to allow complexes to form. • 3). In a sterile, conical tube, mix 1 part of lipid:DNA complex with 20 parts of HEK-293 cells in suspension. Mix gently by inversion 5 times. • 4). Dispense cells+lipid: DNA complex into a sterile tissue culture dish and incubate for 22-24 hours.
Each test compound is delivered from the compound source plate to the wells of 384-well white NBS plate by Echo 550.
3. Preparation of Cells with NanoBRET™ Tracer Reagent • 1). Remove medium from dish with transfected HEK-293 cells via aspiration, trypsinize and allow cells to dissociate from the dish. • 2). Neutralize trypsin using medium containing serum and centrifuge at 200× g for 5 minutes to pellet the cells. Adjust the cell density to […] cells/mL in Opti-MEM without phenol red. • 3). Prepare Complete 20× NanoBRET™ Tracer Reagent with Tracer Dilution Buffer. • 4). […]
In general terms: In BRET a luciferase serves as donor, and the signal depends on an acceptor being close.
Turning to `COc1cc2ncc(-c3nc(N[C@H]4CNCC[C@@H]4F)c(F)cc3F)n2nc1C(C)(O)C(F)(F)F` (single isomer, unassigned) [Compound 77a], the IC50 – broadly, the concentration needed to halve the response being measured – amounted to 2 nM.

`COc1cc2ncc(-c3nc(N[C@@H]4CCCNC4)c(F)cc3F)n2nc1C(C)(O)C(F)(F)F` (single isomer, unassigned) [Compound 81a]: the IC50 was determined as 5 nM.

On to `COc1cc2ncc(-c3nc(N[C@H]4CNCC[C@@H]4F)c(F)cc3F)n2nc1C1CCC1` [Compound 15a, 6-(6-cyclobutyl-7-methoxyimidazo[1,2-b]pyridazin-3-yl)-3,5-difluoro-N-((3S,4S)-4-fluoropiperidin-3-yl)pyridin-2-amine], for which the IC50 is less than 0.5 nM.

Take `COc1cc2ncc(-c3nc(N[C@H]4CNC[C@@H]4F)c(F)cc3F)n2nc1C1CC2(CCC2)C1` [Compound 12a, 3,5-difluoro-N-((3S,4S)-4-fluoropyrrolidin-3-yl)-6-(7-methoxy-6-(spiro[3.3]heptan-2-yl)imidazo[1,2-b]pyridazin-3-yl)pyridin-2-amine]: the IC50 amounted to 13 nM.

`COc1cc2ncc(-c3nc(N[C@H]4CNCC[C@@H]4F)c(F)cc3F)n2nc1C12CC(C1)C2` [Compound 67a, 6-(6-(bicyclo[1.1.1]pentan-1-yl)-7-methoxyimidazo[1,2-b]pyridazin-3-yl)-3,5-difluoro-N-((3S,4S)-4-fluoropiperidin-3-yl)pyridin-2-amine] yielded an IC50 of 1 nM. This IC50 lies about 13-fold lower than the previous one.

In turn, `COc1cc2ncc(-c3nc(N[C@H]4CNCC[C@@H]4F)c(F)cc3F)n2nc1C1CC2(CCC2)C1` [Compound 10a, 3,5-difluoro-N-((3S,4S)-4-fluoropiperidin-3-yl)-6-(7-methoxy-6-(spiro[3.3]heptan-2-yl)imidazo[1,2-b]pyridazin-3-yl)pyridin-2-amine] returned an IC50 of 63 nM.

The compound `COc1cc2ncc(-c3nc(N[C@H]4CNC[C@@H]4F)c(F)cc3F)n2nc1C(C)(O)C(F)(F)F` (single isomer, unassigned) [Compound 80a] gave an IC50 of 1 nM.

Values taken from patent US20250368648A1, “MULTI-CYCLIC IRAK AND FLT3 INHIBITING COMPOUNDS AND USES THEREOF” (CHILDREN'S HOSPITAL MEDICAL CENTER, priority 2022, published 2025).
